Data as given in patent US6100280A, “Narcotic antagonist” (Pola Chemical Industries, Inc., priority 1995, dated 2000).

Each compound was assayed against T1, (cocaine derivative [^3 H]WIN35,428 binding, striatum) (Rattus norvegicus, UniProt P23977) (assay: In vitro binding inhibition assay against a cocaine derivative ([^3 H]WIN35,428), striatum crude membrane). Conditions: [^3 H]WIN35,428 0.5 nM, 2 hours on ice (0-4° C.), pH 7.4, Hill plotting, read-out: 50% Inhibition concentration.
T1 construct: from tissue; host or cells: striatum of male Wistar rats, crude membranes
T1 sequence (P23977 whole entry): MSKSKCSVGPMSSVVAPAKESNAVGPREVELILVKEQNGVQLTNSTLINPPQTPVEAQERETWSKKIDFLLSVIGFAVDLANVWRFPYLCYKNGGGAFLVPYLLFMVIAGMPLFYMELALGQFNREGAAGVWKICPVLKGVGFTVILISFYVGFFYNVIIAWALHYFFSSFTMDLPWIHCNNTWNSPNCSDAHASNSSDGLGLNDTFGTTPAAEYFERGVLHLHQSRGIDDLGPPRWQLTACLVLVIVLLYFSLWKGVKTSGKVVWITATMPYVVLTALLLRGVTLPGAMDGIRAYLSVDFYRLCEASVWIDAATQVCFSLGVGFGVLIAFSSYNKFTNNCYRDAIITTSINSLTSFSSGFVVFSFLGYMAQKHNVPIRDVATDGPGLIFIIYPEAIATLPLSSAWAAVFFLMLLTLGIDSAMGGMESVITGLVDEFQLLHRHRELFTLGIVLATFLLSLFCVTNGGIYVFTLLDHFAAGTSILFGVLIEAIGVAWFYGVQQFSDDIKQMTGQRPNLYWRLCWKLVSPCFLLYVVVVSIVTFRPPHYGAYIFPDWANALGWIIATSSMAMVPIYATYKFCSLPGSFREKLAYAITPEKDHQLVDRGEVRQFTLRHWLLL
Parameters: species or system male Wistar rats
Protocol: (§1) Male Wistar rats were decapitated. From each rat, striatum was immediately removed, and its wet weight was measured. The tissue of striatum was homogenized using a polytron together with a 10-fold amount of 50 mM Tris-HCl buffer (pH 7.4) while being cooled on ice. The homogenate was centrifugally separated (38,700 G, 20 minutes, 4° C.), and the resulting pellet was suspended in a mixture of a 40-fold amount (based on the original tissue weight) of 50 mM Tris-HCl and 100 mM NaCl buffer (pH 7.4).
(§2) The contents were allowed to react for 2 hours on ice (0-4° C.). Reaction was terminated by passing the contents through a glass filter (GF/B, product of Whatman) which had been immersed in 0.1% BSA solution for at least 40 minutes in advance while aspiration was carried out using a cell harvester, followed by washing three times with 5 ml of 50 mM Tris HCl buffer (pH 7.4). The filter and 10 ml of aquazol 2 (product of NEN) were placed in a vial and allowed to stand overnight. Radioactivity was measured using a liquid scintillation counter. […] Specific binding amounts were determined by subtracting the nonspecific binding amounts from the total binding amounts. Fifty(50)% inhibition concentrations were calculated using Hill plotting.
Compound `CN(CC(O)CN1CCN(CCCC(c2ccc(F)cc2)c2ccc(F)cc2)CC1)c1ccccc1` (stereo not shown) [Compound 6, 1-[4,4-bis(4-fluorophenyl)-butyl]-4-[2-hydroxy-3-(N-methyl-N-phenylamino)-propyl]piperazine.2C4H4O4] has an IC50 of 0.0349 µM. `COC(CNc1ccccc1)CN1CCN(CCCC(c2ccc(F)cc2)c2ccc(F)cc2)CC1` (stereo not shown) [Compound 8, 1-[4,4-bis(4-fluorophenyl)-butyl]-4-(2-methoxy-3-phenylaminopropyl)piperazine.2HCl] was tested, and the IC50 was 0.0237 µM. With `OC(CNc1ccccc1)CN1CCN(CCCCC(c2ccc(F)cc2)c2ccc(F)cc2)CC1` (stereo not shown) [Compound 21, 1-[5,5-bis(4-flurophenyl)-pentyl]-4-(2-hydroxy-3-phenylaminopropyl)piperazine.2HCl] the IC50 was 0.0412 µM. `CC(C)(C)c1cc(NCC(O)CN2CCN(CCCC(c3ccc(F)cc3)c3ccc(F)cc3)CC2)cc(C(C)(C)C)c1O` (stereo not shown) [Compound 22, 1-[4,4-bis(4-flurophenyl)-butyl]-4-[3-(3,5-di-tert-butyl-4-hydroxyphenylamino)-2-hydroxypropyl]piperazine..3C4H4O4] gave an IC50 of 0.306 µM. With `COc1cc(NCC(O)CN2CCN(CCCC(c3ccc(F)cc3)c3ccc(F)cc3)CC2)cc(OC)c1OC` (stereo not shown) [Compound 11, 1-[4,4-bis(4-fluorophenyl)-butyl]-4-[2-hydroxy-3-(3,4,5-trimethoxyphenylamino)-propyl]piperazine.2C4H4O4] the IC50 was 0.197 µM. For `CC(=O)OC(CNc1ccccc1)CN1CCN(CCCC(c2ccc(F)cc2)c2ccc(F)cc2)CC1` (stereo not drawn) [Compound 7, l-(2-acetoxy-3-phenylamino-propyl)-4-[4,4-bis(4-fluorophenyl)butyl]piperazine.2C4H4O4], the IC50 was 0.0412 µM. For `OC(CNc1ccccc1)CN1CCN(CC(c2ccccc2)c2ccccc2)CC1` (stereo not shown) [Compound 19, 1-[2,2-diphenylethyl)-4-(2-hydroxy-3-phenylamino-propyl)piperazine.2HCl], the IC50 was 0.0722 µM. `OC(CNc1ccccc1)CN1CCN(CCCC(c2ccc(F)cc2)c2ccc(F)cc2)CC1` (single isomer, unassigned; (+)) [Compound 16, (+)-1-[4,4-bis(4-fluorophenyl)butyl)-4-(2-hydroxy-3-phenylaminopropyl)-piperazine.2HCl] showed an IC50 of 0.0526 µM. In the case of `OC(CNc1ccccc1)CN1CCN(CCC(c2ccc(F)cc2)c2ccc(F)cc2)CC1` (stereo not shown) [Compound 18, 1-[3,3-bis(4-fluorophenyl)-propyl]-4-[2-hydroxy-3-phenylaminopropyl)piperazine], the IC50 is reported as 0.015 µM. `OC(CNc1ccccc1)CN1CCN(CCCC(c2ccc(F)cc2)c2ccc(F)cc2)CC1` (single isomer, unassigned) [Compound 15, (--)-1-[4,4-bis(4-fluorophenyl)butyl]-4-(2-hydroxy-3-phenylaminopropyl)-piperazine.2HCl] showed an IC50 of 0.0376 µM. In the case of `OC(CNCc1ccccc1)CN1CCN(CCCC(c2ccc(F)cc2)c2ccc(F)cc2)CC1` (stereo not shown) [Compound 3, 1-[4,4-bis(4-fluorophenyl)-butyl]-4-(2-hydroxy-3-benzylaminopropyl)-piperazine.2HCl], the IC50 is reported as 0.0317 µM. `Nc1ccc(NCC(O)CN2CCN(CCCC(c3ccc(F)cc3)c3ccc(F)cc3)CC2)cc1` (stereo not shown) [Compound 23, 1-[3-(4-aminophenylamino)-2-hydroxypropyl]-4-[4,4-bis(4-fluorophenyl)butyl]-piperazine.3C4H4O4] showed an IC50 of 0.534 µM. `O=[N+]([O-])c1ccc(NCC(O)CN2CCN(CCCC(c3ccc(F)cc3)c3ccc(F)cc3)CC2)cc1` (stereo not shown) [Compound 20, 1-[4,4-bis(4-fluorophenyl)butyl]-4-[2-hydroxy-3-(4-nitrophenylamino)propyl]-piperazine.2HCl] was tested, and the IC50 was 0.0558 µM. For `OC(CNc1ccccc1)CN1CCN(C(c2ccc(F)cc2)c2ccc(F)cc2)CC1` (stereo not shown) [Compound 2, 1-[bis(4-fluorophenyl)-methyl]-4-[2-hydroxy-3-phenylaminopropyl)-piperazine.2HCl], the IC50 was 0.0516 µM. Work on `COc1ccc(NCC(O)CN2CCN(CCCC(c3ccc(F)cc3)c3ccc(F)cc3)CC2)cc1` (stereo not shown) [Compound 13, 1-[4,4-bis(4-fluorophenyl)-butyl]-4-[2-hydroxy-3-(4-methoxyphenylamino)propyl]-piperazine.2HCl] yielded an IC50 of 0.105 µM. For `COC(=O)[C@H]1[C@@H](c2ccccc2)C[C@@H]2CC[C@H]1N2C` [WIN35,065-2, reference compound], the IC50 was 0.118 µM. `OC(CNc1ccccc1)CN1CCN(CCCC(c2ccc(F)cc2)c2ccc(F)cc2)CC1` (stereo not shown) [Compound 1, 1-[4,4-bis(4-fluorophenyl)-butyl]-4-(2-hydroxy-3-phenylaminopropyl)piperazine.2HCl] gave an IC50 of 0.0448 µM. With `OC(CNc1ccc(F)cc1)CN1CCN(CCCC(c2ccc(F)cc2)c2ccc(F)cc2)CC1` (stereo not shown) [Compound 9, 1-[4,4-bis(4-fluorophenyl)-butyl]-4-[3-(4-fluorophenylamino)-2-hydroxypropyl]-piperazine.2HCl] the IC50 was 0.0468 µM. With `CC(=O)N(CC(O)CN1CCN(CCCC(c2ccc(F)cc2)c2ccc(F)cc2)CC1)c1ccccc1` (stereo not shown) [Compound 4] the IC50 was 0.0495 µM. `Oc1ccc(NCC(O)CN2CCN(CCCC(c3ccc(F)cc3)c3ccc(F)cc3)CC2)cc1` (stereo not shown) [Compound 25, 1-[4,4-bis(4-flurophenyl)-butyl]-4-[2-hydroxy-3-(4-hydroxyphenylamino)propyl]-piperazine.2C4H4O4] gave an IC50 of 0.0237 µM. Compound `OC(CNc1ccncc1)CN1CCN(CCCC(c2ccc(F)cc2)c2ccc(F)cc2)CC1` (stereo not shown) [Compound 17, 1-[4,4-bis(4-fluorophenyl)-butyl)-4-[2-hydroxy-3-(4-pyridylamino)propyl]-piperazine.2C4H4O4] has an IC50 of 0.045 µM.

These compounds were tested against T2, narcotic receptors (cocaine derivative [^3 H]WIN35,428 binding, striatum) (Rattus norvegicus, UniProt P23977) (assay: Ex vivo binding inhibition assay ([^3 H]WIN35,428, striatum after intraperitoneal administration)). Conditions: 30 mg/kg intraperitoneally, 30 minutes after administration, [^3 H]WIN35,428 0.5 nM; control (saline) 0%.
T2 construct: from tissue; host or cells: striatum of male Wistar rats, crude membranes
T2 sequence (P23977 whole entry): as above
Assay type: in vivo, male Wistar rats
Protocol: Ex vivo binding inhibition assay
as §1, with “To each male” for “Male”, “Wistar rat, 30 mg/kg of compound 15 was intraperitoneally administered. Thirty minutes after administration,” for “Wistar”, “(20,000” for “(38,700”, “20-fold” for “40-fold”
as §2, with “Control accounts for the sole use of a saline solution administered to rats intraperitoneally. […]” for “Fifty(50)% inhibition concentrations were calculated using Hill plotting.”
`OC(CNc1ccccc1)CN1CCN(CCCC(c2ccc(F)cc2)c2ccc(F)cc2)CC1` (single isomer, unassigned) [Compound 15, (--)-1-[4,4-bis(4-fluorophenyl)butyl]-4-(2-hydroxy-3-phenylaminopropyl)-piperazine.2HCl] was tested, and the binding inhibitory ratio was 86.1%.
